Measured values published in US10124033B2, “Peptides and methods of use” (BAXALTA INCORPORATED, priority 2014, dated 2018).
Read-outs that look alike come from different tables or passages of the source. Residues, ends and D or L forms follow the SMILES beside them.

Tests used:
[1] = biological target: T1, Protein S/APC cofactor activity (Homo sapiens, UniProt P07225); experiment: CAT assay in pooled normal plasma supplemented with 3 nM APC; format: biochemical; conditions: 6 pM TF, 15 μM phospholipids
T1 construct: host or cells: plasma
T1 sequence (P07225 41-676 limits assumed): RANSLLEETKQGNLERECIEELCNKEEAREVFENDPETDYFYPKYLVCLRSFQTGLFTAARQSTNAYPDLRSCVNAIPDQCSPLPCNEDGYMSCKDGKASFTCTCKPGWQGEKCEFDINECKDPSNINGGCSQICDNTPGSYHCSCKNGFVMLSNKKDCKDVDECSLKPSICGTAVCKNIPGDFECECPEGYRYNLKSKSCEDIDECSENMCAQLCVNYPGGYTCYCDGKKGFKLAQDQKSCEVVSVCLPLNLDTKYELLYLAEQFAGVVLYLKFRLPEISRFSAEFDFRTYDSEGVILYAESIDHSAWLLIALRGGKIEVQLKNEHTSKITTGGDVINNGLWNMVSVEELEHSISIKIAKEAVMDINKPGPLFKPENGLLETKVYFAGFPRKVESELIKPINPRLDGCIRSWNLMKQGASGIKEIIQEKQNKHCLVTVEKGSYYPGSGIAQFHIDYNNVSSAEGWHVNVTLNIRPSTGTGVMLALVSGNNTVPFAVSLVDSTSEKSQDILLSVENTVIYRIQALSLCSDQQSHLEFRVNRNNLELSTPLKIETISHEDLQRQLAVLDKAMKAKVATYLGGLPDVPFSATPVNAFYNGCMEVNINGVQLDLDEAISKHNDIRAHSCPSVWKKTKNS
Protocol: Peptides also were tested for improvement of Protein S/APC-dependent thrombin generation in hemophilic plasma using a CAT assay. Protein S enhances the anticoagulation of APC in plasma. The CAT assay quantifies the effect of Protein S on APC-mediated thrombin generation initiated via the extrinsic coagulation pathway (Nicolaes, Blood Coagul. Fibrinolysis, 8:28 (1997)). APC (35 nM) and Protein S (25 nM) was added to Protein 5-depleted plasma, and plasma samples were incubated with high titer heat inactivated anti-human FVIII plasma raised in goat (4490 BU/ml; Baxter BioScience, Vienna, Austria; 50 BU/ml final plasma concentration). Thrombin formation in plasma was followed by calibrated automated thrombography (CAT) in a Fluoroskan Ascent® reader (Thermo Labsystems, Helsinki, Finland) and quantified via the thrombin peak-height. Thrombin generation was determined at high tissue factor (TF) concentration in the absence and in the presence of APC at a concentration that reduces the peak height to 20%. The inhibitory effect of peptides described herein on the APC cofactor activity of Protein S (PS) in plasma was measured in FVIII-inhibited pooled normal plasma supplemented with APC. Complete (100%) Protein S/APC inhibition is the height of the thrombin peak without addition of APC. Lack of (0%) PS/APC inhibition correlates to the thrombin peak-height value with a certain amount of APC. Peptides were ranked by their normalized values in comparison to the mean of wild-type controls including SD at two defined peptide concentrations (EC50 and EC90). […] For the assays, pooled normal plasma was supplemented with 3 nM APC and triggered with 6 pM TF, and 15 μM phospholipids (DOPC/POPS 80/20). Stock APC was diluted with TF-PL-MIX to 24 nM (plasma concentration: 3 nM).

[2] = plasma stability in pooled normal human plasma; format: in vitro ADME; conditions: pooled normal human plasma, 37° C., 6 hours
Protocol: (§1) Affinity and activity of all 18 peptides was improved compared to parent JBS2572. […] Activity and stability were improved up to 1.5-fold. Plasma stability was determined in pooled normal human plasma and mouse plasma at 37° C.; exemplary results also are provided in Table 3.

[3] = biological target: T2, human full-length Protein S (Homo sapiens, UniProt P07225); experiment: Biacore (surface plasmon resonance) on immobilized Protein S; format: binding; conditions: Biacore; for koff / kon: Table 3; for Kd: affinity-matured and modified peptides, read-out: KD
T2 construct: using human full-length Protein S and human GAS6
T2 sequence (P07225 41-676 limits assumed): T1 sequence (P07225 41-676 limits assumed)
Protocol: (§2) Protein S affinity also was determined via Biacore (Biacore 3000 or Biacore T200) using human full-length Protein S and human GAS6. Briefly, 1000 RU of Protein S or GAS6 were immobilized on a CMS chip. In order to probe the kinetics of Protein S binding peptides to Protein S, the peptides were injected at various concentrations in a HBS-buffer containing 3 mM CaCl2 and 1% DMSO to the flow cell and allowed to interact with the immobilized proteins on the sensor chip. The chip could be regenerated with 4 M MgCl2 in HBS-buffer. Sensorgrams were fitted to a Langmuir binding model for the determination of kon and koff and the calculation of KD. Peptides were tested on their specificity to Protein S with peptide binding studies on the anti-target GAS6.

[4] = plasma stability in mouse plasma; format: in vitro ADME; conditions: 37° C.
Protocol: as §1

[5] = biological target: T3, human GAS6 (Homo sapiens, UniProt Q14393); experiment: Biacore binding to anti-target GAS6; conditions: 1 μM peptide; sensorgrams reviewed visually
T3 sequence (Q14393 31-678): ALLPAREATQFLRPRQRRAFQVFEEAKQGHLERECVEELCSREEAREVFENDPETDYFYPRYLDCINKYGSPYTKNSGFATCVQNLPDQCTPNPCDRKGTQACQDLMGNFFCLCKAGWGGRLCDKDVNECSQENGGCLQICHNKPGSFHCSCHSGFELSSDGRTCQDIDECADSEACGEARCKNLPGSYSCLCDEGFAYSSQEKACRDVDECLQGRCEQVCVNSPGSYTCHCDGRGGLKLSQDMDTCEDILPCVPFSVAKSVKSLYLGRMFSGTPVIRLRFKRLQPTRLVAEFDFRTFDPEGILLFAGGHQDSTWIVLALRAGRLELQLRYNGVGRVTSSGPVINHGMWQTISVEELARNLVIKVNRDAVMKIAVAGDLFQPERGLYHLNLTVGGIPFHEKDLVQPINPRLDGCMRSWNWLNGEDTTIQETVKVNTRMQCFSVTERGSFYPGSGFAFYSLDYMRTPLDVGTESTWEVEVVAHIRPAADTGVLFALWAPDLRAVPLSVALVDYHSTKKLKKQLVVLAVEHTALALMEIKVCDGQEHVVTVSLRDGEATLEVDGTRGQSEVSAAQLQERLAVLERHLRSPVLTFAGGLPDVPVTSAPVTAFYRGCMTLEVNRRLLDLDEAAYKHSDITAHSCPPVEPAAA
Protocol: as §2
Interactions with the anti-target GAS6 were measured via Biacore (surface plasmon resonance) (see Example 2). The maximum signal from the interaction of the peptides with human GAS6 was much lower than the signals obtained with Protein S as interaction partner. Kinetic analysis of the low GAS6 binding signals was error prone, and sensorgrams were reviewed visually to estimate anti-target binding. […] The affinity of JBS2572 for the anti-target was at least 10 times less (indeed, at least 150 times less) than the affinity of the peptides for human Protein S. The data provided by this example confirm that peptides described herein specifically bind Protein S.

Row | Molecule | EC50 [1] [nM] | Stability in human plasma; 6 hours [%] [2] [%] | koff ([3]; read-out: koff) [s⁻¹] | kon ([3]; read-out: kon) [M⁻¹ s⁻¹] | Kd [3] [nM] | Stability in mouse plasma; 4 hours [%] [4] [%] | binding to GAS6 [5] | koff [3] [s⁻¹] | kon [3] [M⁻¹ s⁻¹]
1 | CC(=O)N[C@H](C(=O)NCC(=O)N[C@@H](CC(C)C)C(=O)N[C@H](C(=O)N[C@@H](CO)C(=O)N[C@@H](C)C(=O)NCC(=O)N[C@@H](Cc1c[nH]c2ccccc12)C(=O)N[C@@H](Cc1ccc(O)cc1)C(=O)N[C@@H](CC(=O)O)C(=O)N[C@@H](Cc1ccc(O)cc1)C(=O)N[C@@H](CC(N)=O)C(=O)N[C@@H](Cc1ccccc1)C(=O)N[C@@H](CC(=O)O)C(=O)N[C@H](C(=O)N[C@@H](Cc1ccc(O)cc1)C(=O)N[C@H](C(=O)N[C@@H](CCC(=O)O)C(=O)N[C@@H](Cc1ccccc1)C(=O)N[C@H](C(N)=O)[C@@H](C)O)[C@@H](C)O)[C@@H](C)O)C(C)C)[C@@H](C)O [JBS3188] (Ac-TGLVSAGWYDYNFDTYTEFT-NH2) | 155 |  |  |  |  |  |  |  | 
2 | CC[C@H](C)[C@H](NC(=O)[C@H](CC(=O)O)NC(=O)[C@H](CCCCN)NC(=O)[C@H](CC(N)=O)NC(=O)[C@H](Cc1ccc(O)cc1)NC(=O)[C@H](CC(=O)O)NC(=O)[C@H](Cc1ccc(O)cc1)NC(=O)[C@H](Cc1c[nH]c2ccccc12)NC(=O)CNC(=O)[C@H](C)NC(=O)[C@@H](NC(=O)[C@@H](NC(=O)[C@@H](NC(=O)[C@H](Cc1ccc(O)cc1)NC(=O)[C@H](CCC(=O)O)NC(C)=O)[C@@H](C)CC)C(C)C)[C@@H](C)O)C(=O)N[C@@H](Cc1ccc(O)cc1)C(=O)N[C@@H](Cc1ccc(O)cc1)C(=O)N[C@@H](CCC(=O)O)C(=O)N[C@@H](Cc1ccccc1)C(=O)N[C@@H](CCCCN)C(N)=O [JBS3263] (Ac-EYIVTAGWYDYNKDIYYEFK-NH2) |  | 74 ± 12 | 0.000264 | 629000 | 0.4 | 56 ± 6 |  |  | 
3 | CC[C@H](C)[C@H](NC(=O)[C@H](C)NC(C)=O)C(=O)N[C@@H](Cc1ccc(O)cc1)C(=O)N[C@H](C(=O)N[C@H](C(=O)N[C@@H](C)C(=O)NCC(=O)N[C@@H](Cc1c[nH]c2ccccc12)C(=O)N[C@@H](Cc1ccc(O)cc1)C(=O)N[C@@H](CC(=O)O)C(=O)N[C@@H](Cc1ccc(O)cc1)C(=O)N[C@@H](CC(N)=O)C(=O)N[C@@H](CC(N)=O)C(=O)N[C@@H](CC(=O)O)C(=O)N[C@H](C(=O)N[C@@H](Cc1ccc(O)cc1)C(=O)N[C@@H](Cc1ccc(O)cc1)C(=O)N[C@@H](CCC(=O)O)C(=O)N[C@@H](Cc1ccccc1)C(=O)N[C@H](C(N)=O)[C@@H](C)O)[C@@H](C)O)[C@@H](C)O)C(C)C [JBS3283] (Ac-AIYVTAGWYDYNNDTYYEFT-NH2) |  | 90 ± 9 | 0.000322 | 735000 | 0.4 | 94 ± 6 |  |  | 
4 | CC(=O)N[C@@H](Cc1c[nH]cn1)C(=O)N[C@@H](Cc1c[nH]c2ccccc12)C(=O)N[C@@H](Cc1ccc(O)cc1)C(=O)N[C@H](C(=O)N[C@@H](CO)C(=O)N[C@@H](C)C(=O)NCC(=O)N[C@@H](Cc1c[nH]c2ccccc12)C(=O)N[C@@H](Cc1ccc(O)cc1)C(=O)N[C@@H](CC(=O)O)C(=O)N[C@@H](Cc1ccc(O)cc1)C(=O)N[C@@H](CC(N)=O)C(=O)N[C@@H](CCC(=O)O)C(=O)N[C@@H](CC(=O)O)C(=O)N[C@@H](CCCCN)C(=O)N[C@@H](Cc1ccc(O)cc1)C(=O)N[C@@H](Cc1ccc(O)cc1)C(=O)N[C@@H](CCC(=O)O)C(=O)N[C@@H](Cc1ccccc1)C(=O)N[C@@H](CCC(=O)O)C(N)=O)C(C)C [JBS3306] (Ac-HWYVSAGWYDYNEDKYYEFE-NH2) |  | 84 ± 12 | 0.000402 | 1e+06 | 0.4 | 80 ± 14 |  |  | 
5 | JBS3318: JBS3319 conjugated to 40 kD PEG moiety (Ac-EYYVSAGWYDYNTDTYYEFEC-NH2; not fully specified (residue 21)) |  | 114 ± 8 |  |  |  | 102 ± 20 | not to interact | 0.000213 | 152000
6 | JBS3321: tetramer of JBS3319 monomers together with a four arm 10 kD PEG moiety (Ac-EYYVSAGWYDYNTDTYYEFEC-NH2; not fully specified (residue 21); also: tetramer: four chains joined through C-terminal Cys maleimide to a four-arm 10 kD PEG core) |  | 99 ± 6 |  |  |  | 94 ± 12 |  | 3.88e-05 | 1.58e+06
7 | JBS3322: JBS3206 monomer comprising a 40 kD PEG moiety (Ac-EYIVTAGWYDYNKDIYYEFKC-NH2; not fully specified (residue 21)) |  | 131 ± 14 |  |  |  | 91 ± 26 | not to interact | 0.000278 | 78000
